Three substances from patent US20120107240A1, “Probes and methods of melanoma imaging” (The Board of Trustees of the Leland Stanford Junior …, priority 2010, published 2012) can be followed below.

The subject of series [1] is B16F10 tumor. Kind of series: microPET quantification (ROI analysis) of tumors and other organs in B16F10 tumor-bearing mice. It is filed as in vivo, C57BL/6 mice. Particulars: for tumor uptake: tail vein, B16F10 tumor. As to the method: B16F10 was cultured in Dulbecco's modified Eagle high-glucose medium (Gibco Life Sciences) supplemented with 10% fetal bovine serum with penicillin and streptomycin. The cells were regularly maintained in a 37° C., 5% CO2 humidified incubator. The subcutaneous B16F10 tumor models were prepared with 5- to 6-wk-old male C57BL/6 mice (Charles River). Static microPET scans were performed on the B16F10 tumor-bearing mice and representative decay-corrected coronal images at 0.5, 1, and 2 h after tail vein injection of ^18F-P3BZA (3-^18F-fluoropicolinamide) probe and ^18F-P2BZA (2-^18F-fluoronicotinamide) probe are shown in FIG. 2 (n=5 for each group), from which the B16F10 tumors were clearly visualized with good tumor-to-background contrast for both tracers (the white arrows indicate the tumors).
The microPET quantification analysis of tumors and other organs was obtained from the ROI analysis and the results at 0.5, 1, and 2 h p.i. are shown in FIG. 3. The tumor uptake of 18F-F3BZA probe was 11.8±2.2, 13.2±2.4, and 14.5±3.2% ID/g at 0.5, 1, and 2 h p.i., respectively. For ^18F-P2BZA probe, the tumor uptake was 5.5±1.6, 4.6±2.4, 5.5±2.6% ID/g at 0.5, 1, and 2 h p.i., respectively. […] The unspecific uptake by muscle is very low, 0.8±0.4, 1.0±0.5, 0.6±0.3% ID/g at 0.5, 1, and 2 h p.i.), which is the explanation of the high contrast images shown in FIG. 2.
(§1) The ^18F-fluoropicolinamides were prepared by radiofluorination reactions using no-carrier-added ^18F-fluoride and evaluated in vivo by biodistribution studies and micro-positron emission tomography (microPET) imaging in C57BL/6 mice bearing B16F10 murine melanoma tumors.

The test system of series [2] is B16F10 murine melanoma tumors. As to the kind of experiment: Noninvasive microPET and direct tissue sampling (biodistribution) in subcutaneous B16F10 melanoma xenografts. In kind it is in vivo, C57BL/6 mice. As to the method:
as §1
The total synthesis time was less than 1 hour. The radiochemical purity of the ^18F-labeled probes was more than 98% and the specific activity was 100-150 GBq/μmol.

As to “2-^18F-fluoronicotinamide [^18F-P2BZA, reference compound]”, the tumor uptake in series [1] (0.5 h post injection) was 5.5±1.6 % ID/g; in series [1] (1 h post injection) it was 4.6±2.4 % ID/g; in series [1] (2 h post injection) it was 5.5±2.6 % ID/g.

With 3-^18F-fluoropicolinamide [^18F-P3BZA], the Kidneys uptake in series [1] (0.5 h p.i.) was determined as 6.9±1.1 % ID/g; in series [1] (1 h p.i.) it was 4.7±0.8 % ID/g; in series [1] (2 h p.i.), 3.0±0.6 % ID/g. Besides, the Liver uptake worked out at 5.1±0.8 % ID/g in series [1] (0.5 h p.i.), 4.3±1.1 % ID/g in series [1] (1 h p.i.) and 3.0±0.6 % ID/g in series [1] (2 h p.i.). Moreover, the “unspecific uptake by muscle” value in series [1] (0.5 h p.i.) is given as 0.8±0.4 % ID/g; in series [1] (1 h p.i.) it was 1.0±0.5 % ID/g; in series [1] (2 h p.i.), 0.6±0.3 % ID/g. The tumor uptake in series [1] (0.5 h post injection) worked out at 11.8±2.2 % ID/g; in series [1] (1 h post injection) it was 13.2±2.4 % ID/g; in series [1] (2 h post injection) it was 14.6±3.2 % ID/g; in series [1] (2 h post injection, listed as 18F-F3BZA) it was 14.5±3.2 % ID/g. Also, the “tumor to muscle ratio” value in series [1] (at 2 h) came out at 25.3. The “clearance from the blood” value in series [1] (mouse, in vivo) is given as “cleared rapidly”. Moreover, the in vivo stability result in series [2] (evidenced by bone uptake) is recorded as “good”. In series [2] (mouse, in vivo), the “bone uptake in biodistribution studies” value was “low”.

Take 4-^18F-fluoropicolinamide [^18F-P4BZA]: the tumor uptake in series [1] (0.5 h post injection) was 10.7±1.3 % ID/g; in series [1] (1 h post injection) it was 10.5±1.8 % ID/g; in series [1] (2 h post injection), 8.7±2.3 % ID/g. The bone uptake in series [1] (1 h postinjection) stood at 11.3±2.9 % ID/g; in series [1] (2 h postinjection), 10.3±3.6 % ID/g. In series [1] (evidenced by bone uptake), the “defluorination in the murine model” value was “very high”.
